Measurements reported in article PMC6021035, “Insights into biological activity of ureidoamides with primaquine and amino acid moieties” (Journal of Enzyme Inhibition and Medicinal Chemistry, 2018).

Test system: E. coli (both strains)
Assay: Minimum biofilm eradication assay, E. coli both strains
Type: cell-based, Escherichia coli
Procedure: We tested the susceptibility of different bacterial and yeast strains to compounds 5a–f by determining the minimum biofilm eradication concentration (MBEC). The test was performed in a sterile 96-well flat-bottom plastic tissue culture plate (TPP, Switzerland). Each well was filled with 100 µl of bacterial (10^7 CFUs/ml) or yeast (5 × 10^6 CFUs/ml) suspension. When the possibility of inhibition of yeast biofilm formation was tested, the wells were pre-treated with FBS (250 µl per well). Negative controls contained broth only. Positive controls were performed using standard antibacterial and antifungal drugs gentamycin and amphotericin B, respectively. The plates were covered and incubated aerobically for 24 h (bacteria) or 48 h (yeast) at 37 °C. Following the incubation period, each well was aspirated and washed three times with 250 µl of PBS and vigorously shaken in order to remove all non-adherent bacteria/yeast. The remaining attached cells were fixed with methanol (15 min) and the plates were left to dry overnight. The formed biofilm was stained with crystal violet (1%, 5 min). Excess stain was rinsed by placing the plate under running tap water and the plates were left to dry for 24 h. Adherent cells were resolubilized with acetic acid (33%, v/v). The optical density of each well was measured at 570 nm using a Multiscan plate reader. […]

In the case of `COc1cc(NC(C)CCCN)c2ncccc2c1` (stereo not shown) [PQ, 8-[(4-amino-1-methylbutyl)amino]-6-methoxyquinoline, reference compound], the MBEC is reported as 25 µg/mL.
